Columns and labels:
[1] = test system: SH-SY-5Y Cells; assay: MTS toxicity assay in SHSY5Y cells; assay type: cell-based, human
Procedure: (§1) An enzyme-linked immunosorbent assay was developed to detect secreted APP in SHSY5Y cells, a human neuroblastoma cell line. The purpose of the screen was to discover small molecules that inhibit APP protein synthesis in SHSY5Y cells. SHSY5Y cells were plated at 1×10^5 cells/well in […] of DMEM containing 0.5% heat inactivated FBS in 96 well tissue culture treated plates (Falcon no. 35 3072). 144 MES compounds were tested at final concentrations of […] in 0.1% DMSO. Compounds were added and the plates incubated for 16 hours at 37° C./5% CO2. Maxisorp plates (Nunc no. 437958) were coated overnight with […] capture antibody (Biosource 44-100) diluted in Ca^++ and Mg^++ free PBS. Biosource 44-100 is a mouse mAb that recognizes aa 1-100 of human APP. Plates were blocked for 30 minutes with 1 mg/mL BSA in Ca^++ and Mg^++ free PBS. Plates were washed 3× with wash buffer (Ca^++ and Mg^++ free PBS+0.01% Tween20). […] of supernatants and non-cultured medium controls were transferred from culture plates to ELISA plates. Culture plates were reserved for toxicity analysis. Supernatants were incubated for 4 hours at RT on a plate shaker. After supernatant incubation, plates were washed 3×. Primary antibody (Signet Clone 6E-10 biotin) was added at 0.3125 mg/mL and incubated overnight at 4° C. The recognition site of 6E-10 is aa 1-17 of Ab. For detection, a 1:3000 dilution of horseradish peroxidase conjugated streptavidin (Endogen no. N-100) was incubated for 30 minutes. Plates were washed 3×. Enzyme activity was assessed by incubation with […] TMB substrate solution (Moss no. TMB-US) for 20 minutes. The reaction was stopped by the addition of […] 0.18M sulfuric acid. Optical density was read at 450 nm on Wallac Victor2 plate reader. During the first incubation, toxicity was determined using MTS assay, Cell Titer96 AQ reagent (Promega no. G5430). The background values from the non-cultured medium control were subtracted from the sample values and secreted APP levels and toxicity were expressed as % vehicle control. Of the 144 MES compounds screened, 12 inhibited secreted APP as determined by ELISA. The results are depicted in FIGS. 13A-M.
(§2) Using the experimental procedure outlined above, APP secretion and toxicity studies were performed on several other non-carbamate compounds, and the results are shown in Tables 3 and 4. The compound structures are provided in Table 2 in the application, which are identified by their MES number.

[2] = test system: secreted APP; assay: ELISA for secreted APP in SHSY5Y cells; assay type: cell-based, human; settings: 16 hours
Procedure: as §1, §2

COc1ccc2c(c1)[C@]1(C)CCN(C)C1N2Cc1ccccc1 (single isomer, unassigned) [MES 9202]
APP Toxicity SH-SY-5Y Cells (MTS assay) ([1]; Dose 2 uM): 99.15 % vehicle control | APP Toxicity SH-SY-5Y Cells (MTS assay) ([1]; Dose 6 uM): 97.85 % vehicle control | APP Toxicity SH-SY-5Y Cells (MTS assay) ([1]; Dose 20 uM): 90.25 % vehicle control | APP Secretion by SH-SY-5Y Cells ([2]; Dose 2 uM): 94.4 % vehicle control | APP Secretion by SH-SY-5Y Cells ([2]; Dose 6 uM): 107.55 % vehicle control | APP Secretion by SH-SY-5Y Cells ([2]; Dose 20 uM): 110.05 % vehicle control

COc1ccc2c(c1)[C@@]1(C)CCN(C)C1N2Cc1ccccc1 (single isomer, unassigned) [MES 9203]
APP Toxicity SH-SY-5Y Cells (MTS assay) ([1]; Dose 2 uM): 98.93 % vehicle control | APP Toxicity SH-SY-5Y Cells (MTS assay) ([1]; Dose 6 uM): 99.17 % vehicle control | APP Toxicity SH-SY-5Y Cells (MTS assay) ([1]; Dose 20 uM): 98.83 % vehicle control | APP Secretion by SH-SY-5Y Cells ([2]; Dose 2 uM): 103.1 % vehicle control | APP Secretion by SH-SY-5Y Cells ([2]; Dose 6 uM): 103.9 % vehicle control | APP Secretion by SH-SY-5Y Cells ([2]; Dose 20 uM): 108.4 % vehicle control

COc1ccc2c(c1)[C@@]1(C)CCN(C)C1N2C (single isomer, unassigned; (+)) [MES 9295, (+)-O-Methyleseroline]
APP Toxicity SH-SY-5Y Cells (MTS assay) ([1]; Dose 2 uM): 101.15 % vehicle control | APP Toxicity SH-SY-5Y Cells (MTS assay) ([1]; Dose 6 uM): 100.4 % vehicle control | APP Toxicity SH-SY-5Y Cells (MTS assay) ([1]; Dose 20 uM): 99.85 % vehicle control | APP Secretion by SH-SY-5Y Cells ([2]; Dose 2 uM): 102.6 % vehicle control | APP Secretion by SH-SY-5Y Cells ([2]; Dose 6 uM): 95.7 % vehicle control | APP Secretion by SH-SY-5Y Cells ([2]; Dose 20 uM): 89.35 % vehicle control

CN1CC[C@@]2(C)c3cc(O)ccc3N(C)C2NC1=O (single isomer, unassigned; (-)) [MES 9205]
APP Toxicity SH-SY-5Y Cells (MTS assay) ([1]; Dose 0.08 uM): 108.7 % vehicle control | APP Toxicity SH-SY-5Y Cells (MTS assay) ([1]; Dose 0.25 uM): 105.8 % vehicle control | APP Toxicity SH-SY-5Y Cells (MTS assay) ([1]; Dose 0.74 uM): 105.6 % vehicle control | APP Toxicity SH-SY-5Y Cells (MTS assay) ([1]; Dose 2 uM): 97.9 % vehicle control | APP Toxicity SH-SY-5Y Cells (MTS assay) ([1]; Dose 6 uM): 97.73 % vehicle control | APP Toxicity SH-SY-5Y Cells (MTS assay) ([1]; Dose 20 uM): 33.33 % vehicle control | APP Secretion by SH-SY-5Y Cells ([2]; Dose 0.08 uM): 115.1 % vehicle control | APP Secretion by SH-SY-5Y Cells ([2]; Dose 0.25 uM): 107.4 % vehicle control | APP Secretion by SH-SY-5Y Cells ([2]; Dose 0.74 uM): 114.7 % vehicle control | APP Secretion by SH-SY-5Y Cells ([2]; Dose 2 uM): 96.73 % vehicle control | APP Secretion by SH-SY-5Y Cells ([2]; Dose 6 uM): 96.9 % vehicle control | APP Secretion by SH-SY-5Y Cells ([2]; Dose 20 uM): 22.17 % vehicle control

CN1c2ccc(OC3CCCCO3)cc2[C@]2(C)CCNC12 (single isomer, unassigned; (-)) [MES 9320, (−)-O-Tetrahydropyranyl-N-1-noreseroline]
APP Toxicity SH-SY-5Y Cells (MTS assay) ([1]; Dose 2 uM): 92 % vehicle control | APP Toxicity SH-SY-5Y Cells (MTS assay) ([1]; Dose 6 uM): 84 % vehicle control | APP Toxicity SH-SY-5Y Cells (MTS assay) ([1]; Dose 20 uM): 28 % vehicle control | APP Secretion by SH-SY-5Y Cells ([2]; Dose 2 uM): 103.15 % vehicle control | APP Secretion by SH-SY-5Y Cells ([2]; Dose 6 uM): 91.8 % vehicle control | APP Secretion by SH-SY-5Y Cells ([2]; Dose 20 uM): 15.2 % vehicle control

COc1ccc2c(c1)c(CCN(C)C)cn2Cc1ccccc1 [MES 9191, N,N-Dimethyl-N^1-benzyl-5-methoxytryptamine]
APP Toxicity SH-SY-5Y Cells (MTS assay) ([1]; Dose 0.08 uM): 104.5 % vehicle control | APP Toxicity SH-SY-5Y Cells (MTS assay) ([1]; Dose 0.25 uM): 103.9 % vehicle control | APP Toxicity SH-SY-5Y Cells (MTS assay) ([1]; Dose 0.74 uM): 103.7 % vehicle control | APP Toxicity SH-SY-5Y Cells (MTS assay) ([1]; Dose 2 uM): 99.18 % vehicle control | APP Toxicity SH-SY-5Y Cells (MTS assay) ([1]; Dose 6 uM): 92.84 % vehicle control | APP Toxicity SH-SY-5Y Cells (MTS assay) ([1]; Dose 20 uM): 91.1 % vehicle control | APP Secretion by SH-SY-5Y Cells ([2]; Dose 0.08 uM): 100.8 % vehicle control | APP Secretion by SH-SY-5Y Cells ([2]; Dose 0.25 uM): 101.6 % vehicle control | APP Secretion by SH-SY-5Y Cells ([2]; Dose 0.74 uM): 99.87 % vehicle control | APP Secretion by SH-SY-5Y Cells ([2]; Dose 2 uM): 100.74 % vehicle control | APP Secretion by SH-SY-5Y Cells ([2]; Dose 6 uM): 65.3 % vehicle control | APP Secretion by SH-SY-5Y Cells ([2]; Dose 20 uM): 64.36 % vehicle control

COc1ccc2c(c1)C1(C)CCN(C)C1N2Cc1ccccc1 (stereo not drawn) [MES 9199]
APP Toxicity SH-SY-5Y Cells (MTS assay) ([1]; Dose 2 uM): 100.5 % vehicle control | APP Toxicity SH-SY-5Y Cells (MTS assay) ([1]; Dose 6 uM): 101.65 % vehicle control | APP Toxicity SH-SY-5Y Cells (MTS assay) ([1]; Dose 20 uM): 101.9 % vehicle control | APP Secretion by SH-SY-5Y Cells ([2]; Dose 2 uM): 92.2 % vehicle control | APP Secretion by SH-SY-5Y Cells ([2]; Dose 6 uM): 93.9 % vehicle control | APP Secretion by SH-SY-5Y Cells ([2]; Dose 20 uM): 102.95 % vehicle control

COc1ccc2c(c1)C1(C)CCN(C)C1N2 (stereo not drawn) [MES 9201]
APP Toxicity SH-SY-5Y Cells (MTS assay) ([1]; Dose 2 uM): 98.9 % vehicle control | APP Toxicity SH-SY-5Y Cells (MTS assay) ([1]; Dose 6 uM): 98.65 % vehicle control | APP Toxicity SH-SY-5Y Cells (MTS assay) ([1]; Dose 20 uM): 98.25 % vehicle control | APP Secretion by SH-SY-5Y Cells ([2]; Dose 2 uM): 97.25 % vehicle control | APP Secretion by SH-SY-5Y Cells ([2]; Dose 6 uM): 110.75 % vehicle control | APP Secretion by SH-SY-5Y Cells ([2]; Dose 20 uM): 124.65 % vehicle control

CN1CC[C@@]2(C)c3cc(O)ccc3N(Cc3ccccc3)C12 (stereo partly drawn) [MES 9206]
APP Toxicity SH-SY-5Y Cells (MTS assay) ([1]; Dose 2 uM): 96 % vehicle control | APP Toxicity SH-SY-5Y Cells (MTS assay) ([1]; Dose 6 uM): 91.85 % vehicle control | APP Toxicity SH-SY-5Y Cells (MTS assay) ([1]; Dose 20 uM): 76.3 % vehicle control | APP Secretion by SH-SY-5Y Cells ([2]; Dose 2 uM): 88.2 % vehicle control | APP Secretion by SH-SY-5Y Cells ([2]; Dose 6 uM): 97.1 % vehicle control | APP Secretion by SH-SY-5Y Cells ([2]; Dose 20 uM): 96.4 % vehicle control

CN1CC[C@]2(C)c3cc(O)ccc3N(Cc3ccccc3)C12 (stereo partly drawn) [MES 9215]
APP Toxicity SH-SY-5Y Cells (MTS assay) ([1]; Dose 2 uM): 92.3 % vehicle control | APP Toxicity SH-SY-5Y Cells (MTS assay) ([1]; Dose 6 uM): 78.6 % vehicle control | APP Toxicity SH-SY-5Y Cells (MTS assay) ([1]; Dose 20 uM): 12.9 % vehicle control | APP Secretion by SH-SY-5Y Cells ([2]; Dose 2 uM): 94.55 % vehicle control | APP Secretion by SH-SY-5Y Cells ([2]; Dose 6 uM): 108.1 % vehicle control | APP Secretion by SH-SY-5Y Cells ([2]; Dose 20 uM): 6.2 % vehicle control

CN1CC[C@@]2(C)C3=CC(=O)C(=O)C=C3N(C)C12 (stereo partly drawn) [MES 9225]
APP Toxicity SH-SY-5Y Cells (MTS assay) ([1]; Dose 2 uM): 104.6 % vehicle control | APP Toxicity SH-SY-5Y Cells (MTS assay) ([1]; Dose 6 uM): 100.1 % vehicle control | APP Toxicity SH-SY-5Y Cells (MTS assay) ([1]; Dose 20 uM): 66.5 % vehicle control | APP Secretion by SH-SY-5Y Cells ([2]; Dose 2 uM): 110.45 % vehicle control | APP Secretion by SH-SY-5Y Cells ([2]; Dose 6 uM): 109.2 % vehicle control | APP Secretion by SH-SY-5Y Cells ([2]; Dose 20 uM): 59.75 % vehicle control

C=CC1C[N+]2(Cc3ccc(C(F)(F)F)cc3)CCC1CC2[C@H](O)c1ccnc2ccccc12.[Br-] (stereo partly drawn) [MES 9226]
APP Toxicity SH-SY-5Y Cells (MTS assay) ([1]; Dose 2 uM): 106.4 % vehicle control | APP Toxicity SH-SY-5Y Cells (MTS assay) ([1]; Dose 6 uM): 99.7 % vehicle control | APP Toxicity SH-SY-5Y Cells (MTS assay) ([1]; Dose 20 uM): 97.9 % vehicle control | APP Secretion by SH-SY-5Y Cells ([2]; Dose 2 uM): 116.55 % vehicle control | APP Secretion by SH-SY-5Y Cells ([2]; Dose 6 uM): 101.95 % vehicle control | APP Secretion by SH-SY-5Y Cells ([2]; Dose 20 uM): 104.65 % vehicle control

COc1ccc2c(c1)[C@@](C)(CC#N)C(=O)N2C [MES 9227]
APP Toxicity SH-SY-5Y Cells (MTS assay) ([1]; Dose 2 uM): 103.7 % vehicle control | APP Toxicity SH-SY-5Y Cells (MTS assay) ([1]; Dose 6 uM): 99.27 % vehicle control | APP Toxicity SH-SY-5Y Cells (MTS assay) ([1]; Dose 20 uM): 96.07 % vehicle control | APP Secretion by SH-SY-5Y Cells ([2]; Dose 2 uM): 101.15 % vehicle control | APP Secretion by SH-SY-5Y Cells ([2]; Dose 6 uM): 99.45 % vehicle control | APP Secretion by SH-SY-5Y Cells ([2]; Dose 20 uM): 120.5 % vehicle control

COc1ccc2c(c1)[C@@]1(C)CCNC1N2C (stereo partly drawn) [MES 9228]
APP Toxicity SH-SY-5Y Cells (MTS assay) ([1]; Dose 2 uM, listed as 9228): 102.8 % vehicle control | APP Toxicity SH-SY-5Y Cells (MTS assay) ([1]; Dose 6 uM, listed as 9228): 97.6 % vehicle control | APP Toxicity SH-SY-5Y Cells (MTS assay) ([1]; Dose 20 uM, listed as 9228): 95.4 % vehicle control | APP Secretion by SH-SY-5Y Cells ([2]; Dose 2 uM, listed as 9228): 97.75 % vehicle control | APP Secretion by SH-SY-5Y Cells ([2]; Dose 6 uM, listed as 9228): 110.45 % vehicle control | APP Secretion by SH-SY-5Y Cells ([2]; Dose 20 uM, listed as 9228): 130.05 % vehicle control

Source: patent US8691864B2, “Agents useful for reducing amyloid precursor protein and treating dementia and methods of use thereof” (priority 2000, dated 2014)
